As a reminder, the IC50 is the concentration that gives 50% inhibition.

Structures can show the parent of a compound that is named as a salt. Where two headings read alike, the source gives them in different places. Numbered stars: 1 amine (or outer) side, 2 acyl side, 3 side chain; on linkers, the order of the positions; unused ones are H or OH. Bridge positions count the residues as written; N and C are the ends. Square brackets hold non-standard residues; d marks the D form. Peptide text beside a SMILES is read from it. * marks the point of attachment. hTyr(3S-OH,4S-OH,3'-OSO3H) = N[C@H](C(=O)O)[C@H](O)[C@@H](O)c1ccc(O)c(OS(=O)(=O)O)c1; Orn(4R-OH,5R-OH) = O=C([C@H](C[C@@H](O)[C@@H](O)N[*:3])N[*:1])[*:2]; Pro(3S-OH,4S-Me) = C[C@H]1CN[C@H](C(=O)O)[C@H]1O; X1 = CCCCCOc1ccc(-c2cc(-c3ccc(C(=O)*)cc3)no2)cc1; Gln(3R-OH) = NC(=O)C[C@@H](O)[C@H](N)C(=O)O; Hyp = O=C(O)[C@@H]1C[C@@H](O)CN1 Where only a bound is given, the exact number is not on record here.

Data set [1] deals with C. albicans JCM1542. The data set can be described thus: iHOPE antimicrobial microdilution assay (turbidity OD600). It counts as cell-based, Candida albicans. Particulars: for IC50: read-out: IC50 against C. albicans JCM1542. In general terms: In broth dilution the organism is exposed to a series of concentrations in liquid medium.
The subject of a further data set is HL-60 RCB0041. As to the kind of experiment: iHOPE in vitro cytotoxicity assessment (Cell Count Reagent SF). Format: cell-based, human.
The subject of another data set is E. coli HO-141. The data set can be described thus: iHOPE antimicrobial microdilution assay. Format: cell-based, Escherichia coli.
The test system of the next data set is P. oryzae Kita-1. The data set can be described thus: microbe, parasite or virus in culture. It counts as cell-based, Pyricularia oryzae.
For data set [2], the system named is C. albicans JCM1542. It counts as cell-based, Candida albicans.
A further data set concerns A. fumigatus Af293. The data set can be described thus: iHOPE antimicrobial microdilution assay. Format: cell-based, Aspergillus fumigatus.
For another data set, the system named is S. aureus 209P. The data set can be described thus: iHOPE antimicrobial microdilution assay. It counts as cell-based, Staphylococcus aureus. The note with it: read-out: IC50 against S. aureus 209P.
Data set [3] has as its system C. glabrata JCM3761. The data set can be described thus: iHOPE antimicrobial microdilution assay (turbidity OD600). It counts as cell-based, Candida glabrata. The note with it: Nakaseomyces glabratus, read-out: IC50 against C. glabrata JCM3761.
Data set [4] can be described thus: iHOPE in vitro cytotoxicity assessment (Cell Count Reagent SF). It counts as cell-based, human. Particulars: human.
Description: (§5) The method for in vitro cytotoxicity assessment using Cell Count Reagent SF (Nacalai Tesque) has been described previously ([15]). […] Test compounds were added to the culture medium, and then the plates were incubated at 28°C for 24 h.
For a further data set, the system named is C. tropicalis JCM1541. As to the kind of experiment: iHOPE antimicrobial microdilution assay (turbidity OD600). It counts as cell-based. Particulars: Candida tropicalis, read-out: IC50 against C. tropicalis JCM1541.
The next data set has as its system C. auris VPCI673. The description is as above. Format: cell-based, Candida auris. The note with it: Candidozyma auris, read-out: IC50 against C. auris VPCI673.
In another data set the test system is C. auris Ci6684. The data set is described as above. It counts as cell-based, Candida auris. Particulars: Candidozyma auris, read-out: IC50 against C. auris Ci6684.
A further data set has as its system C. albicans IFO1601. Also on record: method as in earlier work. The note with it: cited from earlier work.
Data set [5] deals with C. glabrata JCM3761. The data set can be described thus: Intracellular ATP measurement (BacTiter-Glo). Particulars: C. glabrata JCM3761, 6 h, dose range 0.010–0.3 µM. Format: cell-based, Candida glabrata. The method, then:
(§1) Intracellular ATP measurement
(§2) Intracellular ATP levels were examined using the protocol outlined in a previous study (27). C. glabrata JCM3761 was precultured overnight in YPD medium [1% yeast extract (Thermo Fisher Scientific), 2% peptone (NIHON PHARMACEUTICAL, Osaka, Japan), and 2% D-glucose]. A 200-µL inoculum suspension containing 0.1% of a 0.5 McFarland standard suspension was prepared and seeded into a 96-well plate. […] The luminescence was recorded using a Varioskan LUX Multimode Microplate Reader.
(§3) Reactive oxygen species (ROS) measurement
(§4) ROS levels were examined using the method described in a previous paper (27). The overnight preculture of C. albicans JCM1542 was washed and resuspended in 5 mL of PBS buffer. 2’,7’- dichlorodihydrofluorescein diacetate (DCFH-DA; Cayman Chemical, MI, US) was added at a concentration of 50 µM. After incubation at 28 °C for 30 min, the fungi were washed three times with PBS buffer to remove the residual extracellular dye and seeded at a density of 1×10^6 cells/well in 50 µL of PBS, followed by the sample addition. After 60 min of incubation, the fluorescence intensity (excitation wavelength/emission wavelength = 485/535 nm) was measured using Varioskan LUX Multimode Microplate Reader.

The subject of data set [6] is C. albicans JCM1542. As to the kind of experiment: Reactive oxygen species (ROS) measurement (DCFH-DA). Format: cell-based, Candida albicans. The note with it: 60 min, dose range 0.010–0.3 µM. The protocol:
as §1, §2, §3, §4

Setting [7] is: Candida albicans, JCM1542, 24 h.
Where [8] appears, read: SD in parentheses, n = 3, read-out: IC50 against HL-60 RCB0041 (cytotoxicity).
The mark [9] stands for this setting: Escherichia coli, HO141, read-out: IC50 against E. coli HO-141.
Where [10] appears, read: Pyricularia oryzae, KITA1, read-out: IC50 against P. oryzae Kita-1.
[11] abbreviates: Aspergillus fumigatus, AF293, read-out: IC50 against A. fumigatus Af293.

Description for HL-60 RCB0041: as §5

`[Cl][Cu][Cl]` [Cu^2+, copper chloride (II)]: the IC50 in the data set on C. albicans JCM1542 [1] (MOPS-RPMI medium, 28°C, 24 h, OD600, standard deviation in parentheses, n = 3) was over 30000 nM; in the data set with HL-60 RCB0041, over 30000 nM; with E. coli HO-141 (SD in parentheses, n = 3, read-out: IC50 against E. coli HO-141), over 30000 nM; with P. oryzae Kita-1 (SD in parentheses, n = 3, read-out: IC50 against P. oryzae Kita-1) it was over 30000 nM; with A. fumigatus Af293 (SD in parentheses, n = 3, read-out: IC50 against A. fumigatus Af293), over 30000 nM; in the data set on S. aureus 209P (SD in parentheses, n = 3), over 30000 nM. Besides, the “concentration leading to earlier budding of C. albicans” value in the data set on C. albicans JCM1542 [2] is recorded as at least 1 µM.

`CCCCCOc1ccc(-c2cc(-c3ccc(C(=O)N[C@H]4C[C@@H](O)[C@@H](O)NC(=O)[C@@H]5[C@@H](O)[C@@H](C)CN5C(=O)[C@H]([C@H](O)CC(N)=O)NC(=O)[C@H]([C@H](O)[C@@H](O)c5ccc(O)c(OS(=O)(=O)O)c5)NC(=O)[C@@H]5C[C@@H](O)CN5C(=O)[C@H]([C@@H](C)O)NC4=O)cc3)no2)cc1` [Micafungin, micafungin] (X1-[Orn(4R-OH,5R-OH)]T[Hyp][hTyr(3S-OH,4S-OH,3'-OSO3H)][Gln(3R-OH)][Pro(3S-OH,4S-Me)]; lactam 1-C): the 50% inhibitory concentration (IC50) in the data set on C. glabrata JCM3761 [3] (JCM3761, 24 h) was 4.9 nM; in the data set on C. albicans JCM1542 [1] (setting [7]), 3.3 nM; in data set [4] (setting [8]), over 30000 nM; in the data set on C. tropicalis JCM1541 (JCM1541, 24 h), 5.4 nM; in the data set with E. coli HO-141 (setting [9]), over 30000 nM; with P. oryzae Kita-1 (setting [10]) it was over 30000 nM. Besides, the concentration for half-maximal inhibition (IC50) in the data set on A. fumigatus Af293 (setting [11]) was 4 nM; in the data set on S. aureus 209P (Staphylococcus aureus, 209P), over 30000 nM; in the data set on C. auris VPCI673 (VPCI673, 24 h) it was 27 nM; with C. auris Ci6684 (CI6684, 24 h), 29 nM. The “morphological change induced in C. albicans” value (“morphological change induced” below) with C. albicans JCM1542 [2] (C. albicans JCM1542, MOPS-RPMI medium, 24 h) is given as “yeast-rich morphology”.

Take `[C-]#[N+][C@H](C)CC(=O)NC[C@@H]1CC[C@H](NC(=O)C[C@@H](C)[N+]#[C-])C(O)O1` (stereo partly drawn) [SF2768]: the “zone of inhibition against C. albicans IFO1601” value in the data set with C. albicans IFO1601 was “faint zone of inhibition”. Also, the IC50 with C. glabrata JCM3761 [3] (JCM3761, 24 h) was 5.4 nM; in the data set with C. albicans JCM1542 [1] (setting [7]) it was 10 nM; in [4] (setting [8]), over 30000 nM; in the data set with C. tropicalis JCM1541 (JCM1541, 24 h), 13 nM; with E. coli HO-141 (setting [9]), over 30000 nM; with P. oryzae Kita-1 (setting [10]), over 30000 nM. The IC50 was 120 nM with A. fumigatus Af293 (setting [11]); 500 nM in the data set on S. aureus 209P (Staphylococcus aureus, 209P); 49 nM in the data set with C. auris VPCI673 (VPCI673, 24 h); 20 nM in the data set on C. auris Ci6684 (CI6684, 24 h). Moreover, in the data set on C. albicans JCM1542 [1] (0.03 µM SF2768, metal chlorides, 24 h), the “effect of excessive amounts of other metal ions (iron, zinc, manganese, magnesium) on the activity” value is recorded as “did not affect the activity”. Moreover, the selectivity index in the data set on C. albicans JCM1542 [1] (HL-60 cytotoxicity versus C. albicans IC50) is listed as > 3,000. In addition, the “cytotoxicity to HL-60 cells (in words)” value with HL-60 RCB0041 (up to / at 30 µM) is given as “without any cytotoxicity”. Moreover, in the data set on C. albicans JCM1542 [2], the “effect on farnesol-induced yeast growth of C. albicans” value is on record as “clearly inhibited this effect”. Further, in the data set on C. albicans JCM1542 [2], the “morphological change induced” value was “few branching or lateral yeasts were observed, and only minimal hyphal growth was observed”. In addition, the “concentration at which the hyphal form of C. albicans was predominant” value in the data set on C. albicans JCM1542 [2] (C. albicans JCM1542) is listed as at least 0.030 µM. The “intracellular level of ATP” value in the data set on C. glabrata JCM3761 [5] is “did not alter the amount”. Moreover, the “intracellular level of reactive oxygen species (ROS)” value with C. albicans JCM1542 [6] was “did not alter the amount”.

For `NCCNCCNCCN` [Trientine, trientine hydrochloride], the IC50 was 120 nM in the data set on C. glabrata JCM3761 [3] (JCM3761, MOPS-RPMI medium, 24 h, SD in parentheses, n = 3); 570 nM in the data set with C. albicans JCM1542 [1] (Candida albicans, JCM1542, MOPS-RPMI medium, 28°C, 24 h, OD600, standard deviation in parentheses, n = 3); over 100000 nM in [4]; 18000 nM in the data set on C. tropicalis JCM1541 (JCM1541, MOPS-RPMI medium, 24 h, SD in parentheses, n = 3); over 100000 nM with E. coli HO-141 (Escherichia coli, HO141, SD in parentheses, n = 3, read-out: IC50 against E. coli HO-141); over 100000 nM in the data set with P. oryzae Kita-1 (setting [10]). The half-inhibitory concentration (IC50) in the data set on A. fumigatus Af293 (Aspergillus fumigatus, AF293, SD in parentheses, n = 3, read-out: IC50 against A. fumigatus Af293) was 8100 nM; with S. aureus 209P (Staphylococcus aureus, 209P, SD in parentheses, n = 3) it was over 100000 nM; with C. auris VPCI673 (VPCI673, MOPS-RPMI medium, 24 h, SD in parentheses, n = 3), over 100000 nM; in the data set on C. auris Ci6684 (CI6684, MOPS-RPMI medium, 24 h, SD in parentheses, n = 3), over 100000 nM. Also, the “morphological change induced” value in the data set on C. albicans JCM1542 [2] is “morphological changes similar to those observed with SF2768”.

Values taken from paper PMC12057359, “Inhibitory effect of copper chelators on the budding in Candida albicans” (Antimicrobial Agents and Chemotherapy, 2025).
